In patent US7122173B2, “Agent for the treatment of bladder irritative symptoms accompanied by benign prostatic hyperplasia” (Kyowa Hakko Kogyo Co., Ltd., priority 2001, dated 2006):

Tested on: slowly-inactivating A-type K^+ channel
Assay: Voltage clamp, slowly-inactivating A-type K+ currents (HP −90 mV) in unidentified DRG neurons
Assay type: cell-based, rat
Conditions: for K+ current HP: −90 mV (slowly-inactivating A-type), relative value (before drug = 1): unidentified DRG neurons
Experimental: Experiments were performed on adult female Sprague Dawley rats. First and second series of the experiments were performed, respectively, in unidentified DRG neurons and a specific population of DRG neurons innervating the urinary bladder. The population of DRG neurons that innervate the urinary bladder were labeled by retrograde axonal transport of the fluorescent dye, Fast Blue (4% w/v) (Polyloy, Gross Umstadt, Germany), injected into the wall of the bladder in halothane-anesthetized animals 7 days before the dissociation. The dye was injected with a 28 gauge needle at three to six sites on the dorsal surface of the organ (5–6 μL per site, total volume of 20–30 μL). Each injection site was washed with saline to minimize contamination of adjacent organs with the dye.
Freshly dissociated neurons from DRG were prepared from halothane-anesthetized animals. L6 and S1 DRG were dissected from animals and then dissociated in a shaking bath for 25 minutes at 35° C. with 5 mL DMEM (Sigma) containing 0.3 mg/mL trypsin (Type 3, Sigma), 1 mg/mL collagenase (Type 1, Sigma), and 0.1 mg/mL deoxyribonuclease (Type 4, Sigma). Trypsin inhibitor (Type 2a, Sigma) was then added thereto to neutralize the activity of trypsin. Individual DRG cell bodies were isolated by trituration and then plated on a poly-L-lysine-coated 35 mm Petri dishes.
Dye-labeled primary afferent neurons that innervate the urinary bladder were identified using an inverted phase-contrast microscope (Nikon, Tokyo, Japan) with fluorescent attachments (UV-1A filter; excitation wavelength, 365 nm). Gigaohm-seal whole-cell recordings were performed at room temperature (20–22° C.) on each labeled neuron in a culture dish that usually contained three to seven labeled cells among a few hundred unlabeled neurons. The internal solution contained (in mmol/L): KCl 140, CaCl2 1, MgCl2 2, EGTA 11, HEPES 10, Mg-ATP 2, and Tris-GTP 0.4 adjusted to pH 7.4 with KOH. Patch electrodes had resistances of 1–4 M Ω when filled with the internal solution. Neurons were superfused at a flow rate of 1.5 mL/minutes with an external solution containing (in mmol/L): NaCl 150, KCl 5, CaCl2 2.5, MgCl2 1, HEPES 10, and D-glucose 10, adjusted to pH 7.4 with NaOH. All recordings were made with an Axopatch-1D patch-clamp amplifier (Axon Instruments, Foster City, Calif.), and data were acquired and analyzed by PCLAMP software (Axon Instruments).
In voltage-clamp recordings, outward K^+ currents and inward Na^+ currents were measured. For the isolation of K^+ currents, the external solution was changed to one containing (in mmol/L): choline-Cl 150, KOH 5, CaCl2 0.03, HEPES 10, Mg(OH)2 3, and D-glucose 10, adjusted to pH 7.4 with HCl.
In first series of experiments using unidentified DRG neurons, outward K^+ currents were evoked by voltage steps to +60 mV, 800 ms long from a holding potentials of −90 mV, this was followed by a 1-second conditioning pre-pulse to −20 mV followed by a second pulse to +60 mV, identical to the first in the sequence. In the second series of experiments using Fast Blue-labeled bladder afferent neurons, slowly-inactivating A-type K^+ currents were isolated by subtraction of outward K^+ currents activated from a holding potential of −40 mV (on the condition of inactivation of the majority of slowly-inactivating A-type K^+ currents) from those activated from a holding potential of −120 mV (on the condition of full activation of slowly-inactivating A-type K^+ currents). A compound was added cumulatively, starting with a lower concentration. Currents were measured at the maximum (peak) and normalized to control (before addition of the compound).
The currents at a holding potential (HP) of −90 mV are results of the measurement of slowly-inactivating A-type K^+ currents, and the currents at an HP value of −20 mV are results of the measurement of delayed rectifier K^+ currents. […]

## C[C@](O)(C(=O)Nc1cccc2c1C(=O)c1sccc1CS2(=O)=O)C(F)(F)F [Compound 1, (S)-(+)-N-(5,5-dioxido-10-oxo-4,10-dihydrothieno[3,2-c][1]benzothiepin-9-yl)-3,3,3-trifluoro-2-hydroxy-2-methylpropanamide]
Compound 1 1.0 × 10^−5 mol/L, in the presence of 5 μmol/L verapamil
  K+ current HP: −90 mV, relative value (before drug = 1): 0.99 ± 0.02
Compound 1 1.0 × 10^−5 mol/L, in the presence of 20 mmol/L tetraethylammonium
  K+ current HP: −90 mV, relative value (before drug = 1): 1.19 ± 0.01
Compound 1 1.0 × 10^−5 mol/L
  K+ current HP: −90 mV (slowly-inactivating A-type), relative value (before drug = 1): 0.96 ± 0.05
Compound 1 1.0 × 10^−6 mol/L, in the presence of 5 μmol/L verapamil
  K+ current HP: −90 mV, relative value (before drug = 1): 1.11 ± 0.03
Compound 1 1.0 × 10^−6 mol/L, in the presence of 20 mmol/L tetraethylammonium
  K+ current HP: −90 mV, relative value (before drug = 1): 1.19 ± 0.05
Compound 1 1.0 × 10^−6 mol/L
  K+ current HP: −90 mV (slowly-inactivating A-type), relative value (before drug = 1): 1.06 ± 0.02
Compound 1 1.0 × 10^−7 mol/L, in the presence of 5 μmol/L verapamil
  K+ current HP: −90 mV, relative value (before drug = 1): 1.13 ± 0.02
Compound 1 1.0 × 10^−7 mol/L, in the presence of 20 mmol/L tetraethylammonium
  K+ current HP: −90 mV, relative value (before drug = 1): 1.10 ± 0.01
Compound 1 1.0 × 10^−7 mol/L
  K+ current HP: −90 mV (slowly-inactivating A-type), relative value (before drug = 1): 1.12 ± 0.03
Compound 1 1.0 × 10^−8 mol/L
  K+ current HP: −90 mV (slowly-inactivating A-type), relative value (before drug = 1): 0.99 ± 0.08
Compound 1 2.5 × 10^−8 mol/L
  K+ current HP: −90 mV (slowly-inactivating A-type), relative value (before drug = 1): 1.07 ± 0.03
Compound 1 5.0 × 10^−4 mol/L, in the presence of 5 μmol/L verapamil
  K+ current HP: −90 mV, relative value (before drug = 1): 0.61 ± 0.05
Compound 1 5.0 × 10^−4 mol/L, in the presence of 20 mmol/L tetraethylammonium
  K+ current HP: −90 mV, relative value (before drug = 1): 0.29 ± 0.02
Compound 1 5.0 × 10^−4 mol/L, in the presence of 60 mmol/L tetraethylammonium
  K+ current HP: −90 mV, relative value (before drug = 1): 0.56 ± 0.05
Compound 1 5.0 × 10^−5 mol/L, in the presence of 5 μmol/L verapamil
  K+ current HP: −90 mV, relative value (before drug = 1): 0.94 ± 0.02
Compound 1 5.0 × 10^−5 mol/L, in the presence of 20 mmol/L tetraethylammonium
  K+ current HP: −90 mV, relative value (before drug = 1): 0.91 ± 0.04
Compound 1 5.0 × 10^−5 mol/L, in the presence of 60 mmol/L tetraethylammonium
  K+ current HP: −90 mV, relative value (before drug = 1): 1.15 ± 0.08
Compound 1 5.0 × 10^−5 mol/L
  K+ current HP: −90 mV (slowly-inactivating A-type), relative value (before drug = 1): 0.83 ± 0.09
Compound 1 5.0 × 10^−6 mol/L, in the presence of 5 μmol/L verapamil
  K+ current HP: −90 mV, relative value (before drug = 1): 1.02 ± 0.03
Compound 1 5.0 × 10^−6 mol/L, in the presence of 20 mmol/L tetraethylammonium
  K+ current HP: −90 mV, relative value (before drug = 1): 1.16 ± 0.03
Compound 1 5.0 × 10^−6 mol/L, in the presence of 60 mmol/L tetraethylammonium
  K+ current HP: −90 mV, relative value (before drug = 1): 1.14 ± 0.05
Compound 1 5.0 × 10^−7 mol/L, in the presence of 5 μmol/L verapamil
  K+ current HP: −90 mV, relative value (before drug = 1): 1.17 ± 0.03
Compound 1 5.0 × 10^−7 mol/L, in the presence of 20 mmol/L tetraethylammonium
  K+ current HP: −90 mV, relative value (before drug = 1): 1.15 ± 0.04
Compound 1 5.0 × 10^−7 mol/L, in the presence of 60 mmol/L tetraethylammonium
  K+ current HP: −90 mV, relative value (before drug = 1): 1.11 ± 0.03
Compound 1 5.0 × 10^−7 mol/L
  K+ current HP: −90 mV (slowly-inactivating A-type), relative value (before drug = 1): 1.15 ± 0.03
Compound 1 5.0 × 10^−8 mol/L, in the presence of 5 μmol/L verapamil
  K+ current HP: −90 mV, relative value (before drug = 1): 1.03 ± 0.02
Compound 1 5.0 × 10^−8 mol/L, in the presence of 20 mmol/L tetraethylammonium
  K+ current HP: −90 mV, relative value (before drug = 1): 1.08 ± 0.02
Compound 1 5.0 × 10^−8 mol/L, in the presence of 60 mmol/L tetraethylammonium
  K+ current HP: −90 mV, relative value (before drug = 1): 1.08 ± 0.02
Compound 1 5.0 × 10^−8 mol/L
  K+ current HP: −90 mV (slowly-inactivating A-type), relative value (before drug = 1): 1.07 ± 0.02
Compound 1 5.0 × 10^−9 mol/L, in the presence of 20 mmol/L tetraethylammonium
  K+ current HP: −90 mV, relative value (before drug = 1): 1.02 ± 0.02
Compound 1 5.0 × 10^−9 mol/L
  K+ current HP: −90 mV (slowly-inactivating A-type), relative value (before drug = 1): 1.01 ± 0.03
Unidentified DRG cells, HP −90 mV
  Peak compound concentration for increase of slowly-inactivating A-type K^+ currents: 1e-07 to 5e-07 mol/L
